Our source for the remaining binding values is paper PMC10924921, “Mi-2β promotes immune evasion in melanoma by activating EZH2 methylation” (Nature Communications, 2024).

Assay in all cases: biochemical
Parameters in all cases: KINOMEscan active-site competition binding panel (468 kinase assays), per cent of control at 1000 nM
What all share (conditions): KINOMEscan per cent of control (binding competition); read-out: Percent Control

Assay [1] deals with DYRK1A (Homo sapiens, UniProt Q13627). An excerpt: (§1) Figure S7 / Percent Control
Assay [2] addresses T1, ERK1 (Homo sapiens, UniProt P27361).
T1 construct: gene MAPK3
Text: as §1

The target in assay [3] is T2, DCAMKL1 (Homo sapiens, UniProt O15075).
T2 construct: gene DCLK1
Text: as §1

The target of assay [4] is NEK2 (Homo sapiens, UniProt P51955).
Text: as §1

The target in assay [5] is SRMS (Homo sapiens, UniProt Q9H3Y6).
Sequence of SRMS (Q9H3Y6 whole entry): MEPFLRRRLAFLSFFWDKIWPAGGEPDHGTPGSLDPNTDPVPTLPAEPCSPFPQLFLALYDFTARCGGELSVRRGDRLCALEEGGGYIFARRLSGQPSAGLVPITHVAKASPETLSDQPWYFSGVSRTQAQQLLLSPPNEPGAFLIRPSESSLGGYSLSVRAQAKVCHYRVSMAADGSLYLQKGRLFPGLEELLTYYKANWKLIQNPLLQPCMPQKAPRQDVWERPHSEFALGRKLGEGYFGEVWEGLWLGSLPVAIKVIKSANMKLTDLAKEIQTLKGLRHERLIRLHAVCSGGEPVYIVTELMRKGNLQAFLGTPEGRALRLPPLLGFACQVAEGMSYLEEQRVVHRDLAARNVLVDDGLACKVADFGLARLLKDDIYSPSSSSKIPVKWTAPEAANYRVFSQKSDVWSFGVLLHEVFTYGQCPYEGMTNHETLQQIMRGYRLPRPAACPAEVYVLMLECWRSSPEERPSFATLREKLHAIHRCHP
Text: as §1

In assay [6] the target is FLT3(ITD,F691L) (Homo sapiens, UniProt P36888, F691L/ITD).
Text: as §1

The target of assay [7] is PDPK1 (Homo sapiens, UniProt O15530).
Text: as §1

For assay [8], the target named is FLT3(D835V) (Homo sapiens, UniProt P36888, D835V).
Text: as §1

For assay [9], the target named is T3, AMPK-alpha1 (Homo sapiens, UniProt Q13131).
T3 construct: gene PRKAA1
Text: as §1

Assay [10] addresses T4, JAK3(JH1domain-catalytic) (Homo sapiens, UniProt P52333).
T4 construct: JH1domain-catalytic
Text: as §1

Assay [11] has as its target T5, MRCKB (Homo sapiens, UniProt Q9Y5S2).
T5 construct: gene CDC42BPB
Text: as §1

In assay [12] the target is FGR (Homo sapiens, UniProt P09769).
Text: as §1

The target in assay [13] is T6, ZAK (Homo sapiens, UniProt Q9NYL2).
T6 construct: gene MAP3K20
Text: as §1

Assay [14] has as its target WEE2 (Homo sapiens, UniProt P0C1S8).
Text: as §1

The target in assay [15] is EGFR(E746-A750del) (Homo sapiens, UniProt P00533, DEL746-750).
Sequence of EGFR(E746-A750del) (P00533 with tags, fused parts or gaps DEL746-750): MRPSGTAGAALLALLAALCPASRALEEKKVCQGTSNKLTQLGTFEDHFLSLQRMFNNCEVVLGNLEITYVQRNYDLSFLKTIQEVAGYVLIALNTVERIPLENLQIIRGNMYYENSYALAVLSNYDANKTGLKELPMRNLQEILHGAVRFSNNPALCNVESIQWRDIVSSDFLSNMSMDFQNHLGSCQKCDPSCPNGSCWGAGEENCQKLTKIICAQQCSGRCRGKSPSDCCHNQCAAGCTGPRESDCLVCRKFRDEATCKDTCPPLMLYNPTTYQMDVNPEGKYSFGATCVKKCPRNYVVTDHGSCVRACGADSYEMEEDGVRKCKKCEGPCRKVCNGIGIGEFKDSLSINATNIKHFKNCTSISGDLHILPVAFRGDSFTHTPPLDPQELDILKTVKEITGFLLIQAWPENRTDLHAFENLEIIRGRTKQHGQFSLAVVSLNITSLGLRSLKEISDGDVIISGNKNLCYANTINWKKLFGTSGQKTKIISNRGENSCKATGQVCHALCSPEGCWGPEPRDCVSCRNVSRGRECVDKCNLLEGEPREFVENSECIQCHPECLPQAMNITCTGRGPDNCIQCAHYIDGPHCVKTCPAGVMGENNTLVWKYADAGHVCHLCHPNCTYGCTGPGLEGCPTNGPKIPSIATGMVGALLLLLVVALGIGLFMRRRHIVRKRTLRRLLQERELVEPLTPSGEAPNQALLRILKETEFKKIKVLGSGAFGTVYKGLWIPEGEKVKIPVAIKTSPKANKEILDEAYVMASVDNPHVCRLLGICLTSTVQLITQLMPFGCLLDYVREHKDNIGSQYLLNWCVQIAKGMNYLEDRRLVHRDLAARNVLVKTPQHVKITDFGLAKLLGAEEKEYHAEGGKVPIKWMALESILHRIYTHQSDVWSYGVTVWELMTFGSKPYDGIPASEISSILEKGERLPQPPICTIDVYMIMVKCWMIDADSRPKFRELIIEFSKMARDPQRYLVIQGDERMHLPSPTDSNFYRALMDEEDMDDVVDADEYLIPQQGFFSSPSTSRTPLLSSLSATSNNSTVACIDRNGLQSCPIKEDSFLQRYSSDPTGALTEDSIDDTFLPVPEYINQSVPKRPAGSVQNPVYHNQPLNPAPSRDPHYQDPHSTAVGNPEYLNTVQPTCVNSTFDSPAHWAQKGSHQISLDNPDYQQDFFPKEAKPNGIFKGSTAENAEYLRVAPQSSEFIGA
Text: as §1

Assay [16] deals with PLK1 (Homo sapiens, UniProt P53350).
Sequence of PLK1 (P53350 whole entry): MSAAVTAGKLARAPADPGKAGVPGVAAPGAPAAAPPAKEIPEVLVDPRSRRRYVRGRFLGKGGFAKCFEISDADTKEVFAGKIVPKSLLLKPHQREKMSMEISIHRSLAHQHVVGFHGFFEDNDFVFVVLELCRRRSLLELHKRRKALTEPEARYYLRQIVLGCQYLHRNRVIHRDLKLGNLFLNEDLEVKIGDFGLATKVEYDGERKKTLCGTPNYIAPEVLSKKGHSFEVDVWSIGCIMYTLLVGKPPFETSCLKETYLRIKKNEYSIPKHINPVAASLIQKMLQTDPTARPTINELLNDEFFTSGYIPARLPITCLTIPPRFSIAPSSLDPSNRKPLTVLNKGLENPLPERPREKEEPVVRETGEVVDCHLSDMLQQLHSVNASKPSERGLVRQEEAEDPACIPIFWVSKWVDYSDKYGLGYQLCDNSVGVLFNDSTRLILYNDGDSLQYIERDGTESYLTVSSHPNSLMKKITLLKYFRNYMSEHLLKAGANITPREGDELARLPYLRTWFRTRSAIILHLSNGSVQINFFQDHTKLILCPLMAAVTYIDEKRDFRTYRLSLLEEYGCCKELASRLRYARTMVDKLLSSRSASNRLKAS
Text: as §1

The target in assay [17] is FLT3(R834Q) (Homo sapiens, UniProt P36888, R834Q).
Text: as §1

For assay [18], the target named is CAMKK1 (Homo sapiens, UniProt Q8N5S9).
Text: as §1

For assay [19], the target named is SNRK (Homo sapiens, UniProt Q9NRH2).
Text: as §1

For assay [20], the target named is T7, MEK4 (Homo sapiens, UniProt P45985).
T7 construct: gene MAP2K4
T7 sequence (P45985 whole entry): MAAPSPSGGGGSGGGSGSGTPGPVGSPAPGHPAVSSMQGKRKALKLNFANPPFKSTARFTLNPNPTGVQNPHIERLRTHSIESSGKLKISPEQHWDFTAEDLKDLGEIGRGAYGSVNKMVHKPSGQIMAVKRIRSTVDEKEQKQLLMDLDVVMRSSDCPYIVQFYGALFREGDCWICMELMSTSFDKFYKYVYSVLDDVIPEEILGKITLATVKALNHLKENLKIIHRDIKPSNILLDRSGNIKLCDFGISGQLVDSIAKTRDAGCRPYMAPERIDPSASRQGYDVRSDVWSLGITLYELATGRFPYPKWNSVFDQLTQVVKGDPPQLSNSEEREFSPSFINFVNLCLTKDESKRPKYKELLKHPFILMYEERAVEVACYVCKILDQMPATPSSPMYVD
Text: as §1

Assay [21] addresses CSNK1G1 (Homo sapiens, UniProt Q9HCP0).
Text: as §1

Assay [22] concerns the target MAP4K4 (Homo sapiens, UniProt O95819).
Text: as §1

The target of assay [23] is IGF1R (Homo sapiens, UniProt P08069).
Text: as §1

Assay [24] concerns the target CDKL3 (Homo sapiens, UniProt Q8IVW4).
Text: as §1

Sequence of WEE2 (P0C1S8 whole entry): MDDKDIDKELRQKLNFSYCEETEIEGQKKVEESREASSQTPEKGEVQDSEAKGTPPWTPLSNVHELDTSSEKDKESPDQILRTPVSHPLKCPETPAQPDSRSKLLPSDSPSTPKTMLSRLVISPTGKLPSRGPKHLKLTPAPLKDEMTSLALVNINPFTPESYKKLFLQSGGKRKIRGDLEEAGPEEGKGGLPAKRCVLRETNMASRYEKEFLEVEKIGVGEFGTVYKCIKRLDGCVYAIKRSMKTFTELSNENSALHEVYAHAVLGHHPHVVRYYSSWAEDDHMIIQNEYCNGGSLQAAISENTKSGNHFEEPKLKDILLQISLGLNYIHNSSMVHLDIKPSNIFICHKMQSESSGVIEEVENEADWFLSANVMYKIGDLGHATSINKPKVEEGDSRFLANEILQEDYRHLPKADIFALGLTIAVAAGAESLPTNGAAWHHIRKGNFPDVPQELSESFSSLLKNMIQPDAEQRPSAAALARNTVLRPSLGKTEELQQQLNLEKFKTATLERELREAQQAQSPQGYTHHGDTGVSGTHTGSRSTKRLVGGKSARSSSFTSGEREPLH
T5 sequence (Q9Y5S2 whole entry): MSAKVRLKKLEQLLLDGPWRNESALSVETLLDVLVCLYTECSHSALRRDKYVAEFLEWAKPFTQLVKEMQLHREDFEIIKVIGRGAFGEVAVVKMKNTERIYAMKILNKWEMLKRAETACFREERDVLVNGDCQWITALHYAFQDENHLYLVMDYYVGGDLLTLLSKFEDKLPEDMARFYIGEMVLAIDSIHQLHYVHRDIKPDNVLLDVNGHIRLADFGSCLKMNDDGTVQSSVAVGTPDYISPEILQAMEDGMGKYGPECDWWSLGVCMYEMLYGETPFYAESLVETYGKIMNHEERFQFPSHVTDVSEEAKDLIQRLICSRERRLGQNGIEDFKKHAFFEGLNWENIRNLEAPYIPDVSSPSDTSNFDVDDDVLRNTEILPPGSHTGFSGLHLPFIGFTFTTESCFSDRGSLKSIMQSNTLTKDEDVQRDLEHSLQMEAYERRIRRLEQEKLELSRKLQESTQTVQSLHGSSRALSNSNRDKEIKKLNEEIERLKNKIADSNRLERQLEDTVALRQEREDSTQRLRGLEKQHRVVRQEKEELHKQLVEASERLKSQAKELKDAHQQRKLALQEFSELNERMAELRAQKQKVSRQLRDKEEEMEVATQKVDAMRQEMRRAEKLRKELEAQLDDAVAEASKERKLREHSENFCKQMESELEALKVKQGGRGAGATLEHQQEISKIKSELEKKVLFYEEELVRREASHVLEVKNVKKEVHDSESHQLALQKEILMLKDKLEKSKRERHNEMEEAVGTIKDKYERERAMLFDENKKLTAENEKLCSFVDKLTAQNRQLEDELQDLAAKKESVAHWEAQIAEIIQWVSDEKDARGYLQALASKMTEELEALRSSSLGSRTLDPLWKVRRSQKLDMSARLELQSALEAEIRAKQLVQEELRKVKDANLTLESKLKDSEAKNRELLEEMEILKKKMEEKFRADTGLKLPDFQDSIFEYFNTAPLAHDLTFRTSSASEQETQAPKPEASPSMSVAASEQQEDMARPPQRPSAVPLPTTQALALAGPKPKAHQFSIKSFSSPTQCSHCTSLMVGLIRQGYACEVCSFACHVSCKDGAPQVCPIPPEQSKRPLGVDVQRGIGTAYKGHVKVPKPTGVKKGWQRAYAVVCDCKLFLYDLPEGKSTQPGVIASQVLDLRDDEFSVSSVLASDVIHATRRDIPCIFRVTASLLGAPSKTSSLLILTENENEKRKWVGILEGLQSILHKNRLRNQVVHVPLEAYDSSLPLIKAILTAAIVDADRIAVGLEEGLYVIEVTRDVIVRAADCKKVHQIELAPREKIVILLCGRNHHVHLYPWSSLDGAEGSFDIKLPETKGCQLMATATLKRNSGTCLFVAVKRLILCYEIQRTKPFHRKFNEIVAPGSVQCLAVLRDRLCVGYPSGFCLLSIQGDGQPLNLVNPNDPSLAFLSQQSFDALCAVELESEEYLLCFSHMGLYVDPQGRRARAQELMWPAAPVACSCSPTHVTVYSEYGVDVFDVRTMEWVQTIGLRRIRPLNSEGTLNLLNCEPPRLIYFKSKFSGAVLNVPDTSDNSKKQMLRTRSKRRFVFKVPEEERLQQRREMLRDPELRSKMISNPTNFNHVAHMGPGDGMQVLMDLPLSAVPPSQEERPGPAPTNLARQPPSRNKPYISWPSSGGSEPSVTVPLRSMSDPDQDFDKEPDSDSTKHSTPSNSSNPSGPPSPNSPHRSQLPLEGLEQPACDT

Turning to `Cn1c(=O)[nH]c2ccc(-c3cccc(C(=O)NC4CCn5ccnc5C4)c3)cc21` (stereo not drawn) [Z36-MP5], the remaining binding at 1 µM in assay [1] amounted to 60%; in [2] it was 98%; in assay [3], 53%; in [4], 100%; in assay [5] it was 89%; in assay [6], 57%. Besides, the remaining binding at 1 µM in assay [7] stood at 97%; in assay [8], 55%; in assay [9] it was 92%; in assay [10], 70%; in assay [11], 92%; in assay [12], 85%. The remaining binding at 1 µM is 95% in assay [13]; 96% in [14]; 63% in [15]; 70% in assay [16]; 40% in [17]; 39% in assay [18]. Moreover, the remaining binding at 1 µM in [19] turned out to be 78%; in assay [20], 84%; in assay [21], 63%; in assay [22], 67%; in [23], 97%; in assay [24] it was 59%.
